Measured values taken from patent US7375078B2, “Heterocyclic self-immolative linkers and conjugates” (Genentech, Inc., priority 2004, dated 2008).

Biological target: T1, cathepsin B (Homo sapiens, UniProt P07858)
T1 construct: purchased CalBiochem
Assay: Cathepsin B cleavage of 7A and 7B
Assay type: biochemical
Settings: substrate 100 μM, activated cathepsin B 100 nM, 50 mM sodium acetate buffer pH 5, 37° C., 16 hrs, presence or absence of 1 mM cysteine; HPLC
Procedure: Model compounds with a cleavable peptide unit and a heterocyclic self-immolative moiety, and conjugates of Formula I can be tested for stability and kinetics of enzymatic hydrolysis by the methods of de Groot, et al (1999) J. Med. Chem. 42(25):5277-5283.
FIG. 2 is a schematic representation of the cleavage mechanism.
A cathepsin B (CalBiochem) stock solution at 28.4 μM was diluted to 1 μM in 50 mM sodium acetate buffer pH 7.5, containing 2 mM DTT. Activation was carried out at 37° C. for 15 minutes.
Substrate compounds 7A and 7B were diluted to 100 μM in 50 mM sodium acetate buffer pH 5. Activated cathepsin B was added to a final concentration of 100 nM and the cleavage reaction was carried out at 37° C. for 16 hrs in the presence or absence of 1 mM cysteine.
Reversed-phase separation of cleavage products was carried out using an Agilent 1100 HPLC system. UV signal was monitored at 214, 254 and 380 nm. A Poroshell 300SB-C18 column (No.660750-902) from Agilent was used. Mobile phases A and B contained 0.05% TFA aqueous solution and CH3CN containing 0.05% TFA, respectively. […] The cleavage product of 4-nitroaniline was monitored by its distinct absorbance at 380 nm in the void volume. […]

Row | Compound | cleavage reaction (disappearance of substrate, release of 4-nitroaniline)
1 | CC(C)[C@@H](NC(=O)OC(C)(C)C)C(=O)N[C@H](CCCNC(N)=O)C(=O)Nc1nc(C(F)(F)F)c(COC(=O)Nc2ccc([N+](=O)[O-])cc2)s1 [Compound 7A] | complete
2 | CC(C)[C@@H](NC(=O)CCCCCN1C(=O)C=CC1=O)C(=O)N[C@H](CCCNC(N)=O)C(=O)Nc1nc(C(F)(F)F)c(COC(=O)Nc2ccc([N+](=O)[O-])cc2)s1 [Compound 7B] | complete
